According to PubChem BioAssay AID330 (DTP/NCI, 2004):
Several values for one entry are separate records, joined by “and”; a condition that tells them apart may be missing. Equal entries are not always repeated. Inconclusive results and toxic doses are left out. Rule for the calls: active = survival T/C of 150% or more; inactive = T/C below 125% in these data.

Test system: P388 leukemia ip, CD2F1 mice, survival T/C
Assay: NCI In Vivo Anticancer Drug Screen. Data for tumor model P388 Leukemia (intraperitoneal) in CD2F1 (CDF1) mice
Settings: endpoint: median survival time, higher = longer survival
In short: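 Mice carrying the transplanted tumor received test compound or vehicle. Survival was recorded in each group, and the value is the treated-group measurement divided by that of the vehicle-treated control group.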

[1] = dose: 12.5 mg/kg/injection, schedule: Q01DX009 (ip), vehicle: Klucel (hydroxypropylcellulose) (HPC)
[2] = dose: 25.0 mg/kg/injection, schedule: Q01DX009 (ip), vehicle: Klucel (hydroxypropylcellulose) (HPC)
[3] = dose: 50.0 mg/kg/injection, schedule: Q01DX009 (ip), vehicle: Klucel (hydroxypropylcellulose) (HPC)
[4] = dose: 60.0 mg/kg/injection, schedule: Q01DX005 (ip), vehicle: saline with Tween-80
[5] = dose: 120.0 mg/kg/injection, schedule: Q01DX005 (ip), vehicle: saline with Tween-80
[6] = dose: 240.0 mg/kg/injection, schedule: Q01DX005 (ip), vehicle: saline with Tween-80
[7] = dose: 50.0 mg/kg/injection, schedule: Q01DX005 (ip), vehicle: Klucel (hydroxypropylcellulose) (HPC)
[8] = dose: 100.0 mg/kg/injection, schedule: Q01DX005 (ip), vehicle: Klucel (hydroxypropylcellulose) (HPC)
[9] = dose: 200.0 mg/kg/injection, schedule: Q01DX005 (ip), vehicle: Klucel (hydroxypropylcellulose) (HPC)
[10] = dose: 50.0 mg/kg/injection, schedule: Q01DX005 (ip), vehicle: saline with Tween-80
[11] = dose: 100.0 mg/kg/injection, schedule: Q01DX005 (ip), vehicle: saline with Tween-80
[12] = dose: 200.0 mg/kg/injection, schedule: Q01DX005 (ip), vehicle: saline with Tween-80

Measured: T/C

COC1CC(O)(CCNc2ccc([N+](=O)[O-])cc2[N+](=O)[O-])C(O)C(CO)O1 (stereo not drawn)
inactive: dose: 20.0 mg/kg/injection, schedule: Q01DX001 (ip), vehicle: Klucel (hydroxypropylcellulose) (HPC) 100 % of control | dose: 40.0 mg/kg/injection, schedule: Q01DX001 (ip), vehicle: Klucel (hydroxypropylcellulose) (HPC) 93 % of control | dose: 80.0 mg/kg/injection, schedule: Q01DX001 (ip), vehicle: Klucel (hydroxypropylcellulose) (HPC) 94 % of control

CC(=O)c1c(O)c(C)c(O)c2c1OC1=Cc3c(c(C)nn3-c3ccccc3)C(=O)C12C (stereo not drawn)
inactive: dose: 6.25 mg/kg/injection, schedule: Q01DX009 (ip), vehicle: gum acacia 104 % of control and 108 % of control | dose: 12.5 mg/kg/injection, schedule: Q01DX009 (ip), vehicle: gum acacia 103 % of control and 105 % of control | dose: 25.0 mg/kg/injection, schedule: Q01DX009 (ip), vehicle: gum acacia 101 % of control and 105 % of control | dose: 50.0 mg/kg/injection, schedule: Q01DX009 (ip), vehicle: gum acacia 98 % of control and 101 % of control | dose: 100.0 mg/kg/injection, schedule: Q01DX009 (ip), vehicle: gum acacia 99 % of control and 93 % of control | dose: 200.0 mg/kg/injection, schedule: Q01DX009 (ip), vehicle: gum acacia 86 % of control and 90 % of control

O=C1C2C3C=CC(C3)C2C(=O)N1CNc1ccc2nc(SC3C=CCCC3)sc2c1 (stereo not drawn)
inactive: [1] 106 % of control | [2] 101 % of control | [3] 90 % of control and 98 % of control | dose: 200.0 mg/kg/injection, schedule: Q01DX009 (ip), vehicle: Klucel (hydroxypropylcellulose) (HPC) 91 % of control

O=P(OC1=CCCCC1)(c1ccccc1)c1ccccc1
inactive: [4] 99 % of control | [5] 100 % of control | [6] 97 % of control

C/C=C(\C(=O)OC)C1CC2OC(=O)C1(C=O)C13CCNC21N(C)c1ccccc13 (stereo not drawn)
inactive: dose: 4.5 mg/kg/injection, schedule: Q01DX005 (ip), vehicle: saline + Tween-80 + alcohol 104 % of control | dose: 9.5 mg/kg/injection, schedule: Q01DX005 (ip), vehicle: saline + Tween-80 + alcohol 98 % of control | dose: 18.0 mg/kg/injection, schedule: Q01DX005 (ip), vehicle: saline + Tween-80 + alcohol 104 % of control | dose: 38.0 mg/kg/injection, schedule: Q01DX005 (ip), vehicle: saline + Tween-80 + alcohol 98 % of control

Cn1cnc([N+](=O)[O-])c1Sc1ncccc1C(=O)O
inactive: [7] 112 % of control | [8] 114 % of control | [9] 105 % of control

CCOc1c(N=Nc2ccccc2OC)c(-c2ccccc2)nn1C(=S)S
inactive: [10] 102 % of control | [11] 101 % of control | [12] 108 % of control

O=C(/C=C/c1c(-c2ccccc2)[nH]c2ccccc12)c1cccc([N+](=O)[O-])c1
inactive: [4] 98 % of control | [5] 90 % of control | [6] 90 % of control

N/C(=N\OC1(c2ccccc2)OC(=O)C(=O)/C1=C(/O)c1ccccc1)c1ccccc1 (stereo not drawn)
inactive: [4] 102 % of control | [5] 100 % of control

COC(=O)NC1CC1C(=O)OC (stereo not drawn)
inactive: dose: 100.0 mg/kg/injection, schedule: Q01DX002 (ip), vehicle: saline 104 % of control | dose: 200.0 mg/kg/injection, schedule: Q01DX002 (ip), vehicle: saline 99 % of control | dose: 400.0 mg/kg/injection, schedule: Q01DX002 (ip), vehicle: saline 102 % of control

Nc1c2c(c(N)c3c1C(=O)c1ccccc1C3=O)OCO2
inactive: [4] 100 % of control | [5] 98 % of control | [6] 98 % of control

NNC(=O)C1CC2c3ccccc3C1c1ccccc12 (stereo not drawn)
inactive: [4] 101 % of control | [5] 99 % of control | [6] 97 % of control

O=C1NC(=O)C2(OC3c4ccccc4C=CN3C3=C2C(=O)CC3)C(=O)N1 (stereo not drawn)
inactive: [10] 97 % of control | [11] 91 % of control | [12] 91 % of control

CCCCCCCCCSc1nc2ccc(NC(=O)/C=C/C(=O)O)cc2s1
inactive: [1] 97 % of control | [2] 107 % of control | [3] 106 % of control and 107 % of control | dose: 100.0 mg/kg/injection, schedule: Q01DX009 (ip), vehicle: Klucel (hydroxypropylcellulose) (HPC) 113 % of control

O=C1CSC(c2cccs2)N1c1nccs1 (stereo not drawn)
inactive: [7] 102 % of control | [8] 106 % of control | [9] 100 % of control

C[CH2][Ge]([CH2]C)[CH2]C.C[CH2][Ge]([CH2]C)[CH2]C(=O)OC
inactive: [7] 99 % of control | [8] 100 % of control | [9] 100 % of control

CCOc1ccc(NC(=O)/C(=C\c2ccc(C)cc2)C(C)=O)cc1
inactive: [10] 106 % of control | [11] 110 % of control | [12] 104 % of control

COc1c2ccoc2nc2c(OCC=C(C)C)c3c(cc12)OCO3
inactive: dose: 5.0 mg/kg/injection, schedule: Q01DX005 (ip), vehicle: Klucel (hydroxypropylcellulose) (HPC) 101 % of control | dose: 10.0 mg/kg/injection, schedule: Q01DX005 (ip), vehicle: Klucel (hydroxypropylcellulose) (HPC) 100 % of control | dose: 20.0 mg/kg/injection, schedule: Q01DX005 (ip), vehicle: Klucel (hydroxypropylcellulose) (HPC) 100 % of control | dose: 40.0 mg/kg/injection, schedule: Q01DX005 (ip), vehicle: Klucel (hydroxypropylcellulose) (HPC) 101 % of control | dose: 80.0 mg/kg/injection, schedule: Q01DX005 (ip), vehicle: Klucel (hydroxypropylcellulose) (HPC) 94 % of control

COCON=C(C)C
inactive: dose: 100.0 mg/kg/injection, schedule: Q01DX001 (ip), vehicle: saline 100 % of control | dose: 200.0 mg/kg/injection, schedule: Q01DX001 (ip), vehicle: saline 99 % of control | dose: 400.0 mg/kg/injection, schedule: Q01DX001 (ip), vehicle: saline 98 % of control

CCN1CCCC(=O)C1
inactive: [10] 96 % of control | [11] 101 % of control | [12] 102 % of control

C=CCN(CC=C)C(=O)CCN1CC1
inactive: dose: 2.5 mg/kg/injection, schedule: Q04DX003 (ip), vehicle: saline 108 % of control | dose: 5.0 mg/kg/injection, schedule: Q04DX003 (ip), vehicle: saline 87 % of control | dose: 10.0 mg/kg/injection, schedule: Q04DX003 (ip), vehicle: saline 104 % of control

CC(=O)Nc1nc(Cl)c2[nH]cnc2n1
inactive: dose: 25.0 mg/kg/injection, schedule: Q01DX005 (ip), vehicle: Klucel (hydroxypropylcellulose) (HPC) 98 % of control | [7] 98 % of control | [8] 102 % of control | [9] 112 % of control

CC1(C)OC(C(F)(F)F)(C(F)(F)F)c2cc(C(C)(C)C)ccc2S1
inactive: [4] 98 % of control | [5] 98 % of control | [6] 102 % of control

CCN(CC)CCOCCOC1CC2CCC1(C)C2(C)C (stereo not drawn)
inactive: dose: 50.0 mg/kg/injection, schedule: Q01DX005 (ip), vehicle: saline 99 % of control | dose: 100.0 mg/kg/injection, schedule: Q01DX005 (ip), vehicle: saline 96 % of control

NNCCO
inactive: dose: 3.12 mg/kg/injection, schedule: Q01DX009 (ip), vehicle: saline with Tween-80 108 % of control | dose: 6.25 mg/kg/injection, schedule: Q01DX009 (ip), vehicle: saline with Tween-80 99 % of control and 100 % of control | dose: 12.5 mg/kg/injection, schedule: Q01DX009 (ip), vehicle: saline with Tween-80 99 % of control and 103 % of control | dose: 25.0 mg/kg/injection, schedule: Q01DX009 (ip), vehicle: saline with Tween-80 100 % of control and 104 % of control | dose: 50.0 mg/kg/injection, schedule: Q01DX009 (ip), vehicle: saline with Tween-80 100 % of control

S=C(Nc1ccc(N=Nc2ccccc2)cc1)SCc1ccc2c(c1)OCO2
inactive: dose: 50.0 mg/kg/injection, schedule: Q01DX009 (ip), vehicle: suspension in saline 96 % of control | dose: 100.0 mg/kg/injection, schedule: Q01DX009 (ip), vehicle: suspension in saline 90 % of control | dose: 200.0 mg/kg/injection, schedule: Q01DX009 (ip), vehicle: suspension in saline 92 % of control

Cc1sc2c(c1C)c(=O)[nH]c1c(C#N)c(-c3ccc(Cl)cc3)cn12
inactive: [4] 86 % of control and 90 % of control | [5] 89 % of control | [6] 94 % of control

NC(=S)N/N=C/c1cc(=O)c2cc(Cl)ccc2o1
inactive: [10] 94 % of control | [11] 93 % of control | [12] 92 % of control

CCOC(=O)C(C(=O)OCC)=C1c2c(ccc(OC)c2OC)C=C2c3cc4c(cc3CCN21)OCO4
inactive: dose: 0.63 mg/kg/injection, schedule: Q01DX009 (ip), vehicle: water 97 % of control | dose: 1.25 mg/kg/injection, schedule: Q01DX009 (ip), vehicle: water 100 % of control | dose: 2.5 mg/kg/injection, schedule: Q01DX009 (ip), vehicle: water 106 % of control | dose: 5.0 mg/kg/injection, schedule: Q01DX009 (ip), vehicle: water 117 % of control | dose: 10.0 mg/kg/injection, schedule: Q01DX009 (ip), vehicle: water 124 % of control
